Measured values taken from US20120100616A1, “METHOD OF DOUBLE CROSSOVER HOMOLOGOUS REC[…] CLOSTRIDIA” (THE UNIVERSITY OF NOTTINGHAM, priority 2009, published 2012).

How the values were obtained:
[1] = tested on: E. coli harbouring the codA construct; experiment: functionality testing of codA gene in E. coli with and without FC; type: cell-based; details: codA cassette on pMTL960 plasmid, with vs without FC
Source text: (§1) The codA expression cassette was isolated from the vector used by Fox et al., Gene Therapy. (1996) 3:173-178 and cloned into pMTL960. This plasmid was used to test the functionality of the codA gene in E. coli and C. difficile.

[2] = tested on: C. difficile cells harbouring the codA cassette; experiment: functionality testing of codA cassette for counter selection on minimal medium with FC; type: cell-based; details: 100 μg/ml FC, modified minimal medium, codA cassette on pMTL960 plasmid, FIG. 4
Source text: as §1

In the case of `Nc1nc(=O)[nH]cc1F` [FC, 5-fluorocytosine], the “growth of E. coli carrying the codA construct in presence of FC” value [1] is reported as “permitting growth in the absence of FC but not in the presence of FC” and the “growth of cells expressing codA on minimal medium containing FC” value [2] is reported as “did not grow”.
